Values joined by “and” are separate entries in the source; they are usually repeats but may differ in a detail not shown here. Identical values can stand only once. “Also recorded” adds a separate entry of the source.
T1: I-A^S class II molecules (Mus musculus, UniProt P06345+P14437)
T1 sequence (P14437 1-233): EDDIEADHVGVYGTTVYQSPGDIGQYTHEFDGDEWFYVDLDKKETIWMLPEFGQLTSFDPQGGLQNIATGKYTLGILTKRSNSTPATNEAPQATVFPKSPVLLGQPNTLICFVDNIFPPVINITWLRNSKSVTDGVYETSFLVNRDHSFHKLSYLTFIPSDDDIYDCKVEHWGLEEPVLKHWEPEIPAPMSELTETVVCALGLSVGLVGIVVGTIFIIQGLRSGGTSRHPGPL
T1 sequence (P06345 28-263): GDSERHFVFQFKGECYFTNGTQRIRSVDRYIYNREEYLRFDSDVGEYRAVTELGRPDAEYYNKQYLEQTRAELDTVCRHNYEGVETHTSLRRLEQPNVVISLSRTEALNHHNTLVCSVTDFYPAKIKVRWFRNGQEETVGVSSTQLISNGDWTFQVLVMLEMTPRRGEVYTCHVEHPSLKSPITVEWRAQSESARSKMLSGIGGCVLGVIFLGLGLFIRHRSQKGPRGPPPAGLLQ


What was measured:
PLP-LR specific T cells = assay: In vivo T cell response to PLP-LR after co-administration with Ig-PLP1; parameters: species or system SJL mice; details: co-administered with Ig-PLP1; lymph node and spleen cells, PLP-LR 15 μg/mL; FIG. 9
Experimental: Lymph node and spleen cells were obtained in the same manner as set forth in Example X following co-administration of Ig-PLP1 and Ig-PLP-LR. Proliferative responses in individual mice were also measured using the methods set out in the previous Example following in vitro stimulation with either free PLP1 peptide or PLP-LR peptide at 15 μg/mL. The results of the assays using lymph node and spleen cells are detailed in FIGS. 9A and 9B respectively.

PLP1 specific T cells = assay: In vivo inhibition of T cell response to PLP1 on co-administration with Ig-PLP1; parameters: species or system SJL mice
Experimental: Mice were co-immunized with mixtures of either 50 μg Ig-PLP1 and 150 μg Ig-PLP-LR or 50 μg Ig-PLP1 combined with 150 μg Ig-W. In particular, individual mice from three groups (4 mice per group) were injected sc, as in Example X with a 200 μl mixture (PBS/CFA, 1:1 v/v) containing one of the following mixtures: 50 μg Ig-PLP1 and 150 μg Ig-PLP-LR; 50 μg Ig-PLP1 and 150 μg Ig-W; or Ig-PLP1 and 100 μg PLP-LR peptide. Splenic and lymph node T cell responses were analyzed at day 10 post immunization using the protocol set forth in Example X. The lymph node cells were assayed at 4×10^5 cells/well and the spleen cells at 10×10^5 cells/well. The agonist ligand was PLP1 at 15 μg/mL. Results for the lymph node and spleen cells, shown in FIGS. 8A and 8B respectively and summarized in Table 2 below, represent the mean±SD of triplicates after deduction of background cpm obtained with no agonist in the media.
(mean cpm of triplicates obtained with PLP1 stimulation−mean cpm triplicate BG)/(mean cpm of triplicates obtained with PPD−mean cpm triplicate BG)×100

4E3 T cell hybridomas = assay: Prepulsed proliferation assay: antagonism of agonist mediated T cell activation; format: cell-based, mouse; parameters: key to T cell antagonism, Stimulator (Agonist) PLP1 / T cell antagonism, Stimulator (Agonist) PLP / T cell antagonism, Stimulator (Agonist) Ig-PLP1: +: a plus sign indicates inhibition of IL-2 production and therefore antagonism; −: a minus sign indicates little or no inhibition of IL-2 production and therefore little or no antagonism; details: for antagonism of Ig-PLP1 mediated T cell activation (IL-2 production): agonist 0.05 μM Ig-PLP1, FIG. 5B; for control thymidine incorporation (agonist, no antagonist): 1 μM PLP1 peptide, 0.05 μM Ig-PLP1 or 7 μM PLP, background not deducted
Experimental: Irradiated (3,000 rads) SJL splenocytes (used as APCs) were incubated in 96-well round bottom plates (5×10^5 cells/well/50 μl) with the selected agonist (1 μM PLP1 peptide, 0.05 μM Ig-PLP1 or 7 μM PLP) and various concentrations of antagonist (100 μl/well) for 1 hour. Subsequently, 4E3 T cell hybridomas (5×10^4 cells/well/50 μl) were added and the culture was continued overnight. IL-2 production in the supernatant, determined as in Example VI using HT-2 cells, was used as measure of T cell activation.
Cpm values obtained when the APCs were incubated with the agonist but no antagonist was used as control thymidine incorporation. This value was 7,503±1,302 for Ig-PLP1; 31,089±3,860 for PLP1 peptide; and 8,268±915 for PLP. The cpm value obtained when the APCs were incubated with no agonist or antagonist was used as background (BG). This value was 1,560±323 for Ig-PLP1; 2,574±290 for PLP1 peptide; and 2,127±177 for PLP. The percent control thymidine incorporation was calculated as follows: [(cpm obtained in the presence of test antagonist)−(BG)]/[(cpm control thymidine incorporation value)−(BG)]. Each point represents the mean of triplicates.

T cell hybridomas = details: reported by Kuchroo et al.; cited from earlier work
I-A^S class II molecules = biological target: T1, I-A^S class II molecules; details: cited from earlier work
[1] = tested on: PLP1-specific T cell hybridoma 5B6; assay: T cell hybridoma activation assay (IL-2 production), 5B6; format: cell-based, mouse; details: SJL splenocyte APCs; 0.1 μM Ig chimeras, 1 μM peptides, 1.7 μM PLP; FIG. 3B
Experimental: (§1) PLP1-specific T cell hybridomas 5B6 and 4E3 and the IL-2 dependent HT-2 T helper cells were obtained from The Eunice Kennedy Shriver Center, Waltham, Mass. The 5B6 and 4E3 T cells recognize the peptide PLP1 in association with 1-A^S class II MHC and produces IL-2 when incubated with it as reported by Kuchroo et al., J. Immunol. 153:3326-3336, 1994 which is incorporated herein by reference. Conversely, Kuchroo et al. report that when stimulated with PLP1 and then with PLP-LR both 5B6 and 4E3 cells no longer produce IL-2.
(§2) Using substantially the same technique as Kuchroo et al., activation of the T cell hybridomas for various agonists was performed as follows. Irradiated (3,000 rads) splenocytes from SJL mice were used as antigen presenting cells (APCs) for this Example. The irradiated splenocytes were incubated in 96-well round bottom plates (5×10^5 cells/well/50 μl) with graded concentrations of antigens (100 μl/well). After one hour, T cell hybridomas, i.e. 5B6 of 4E3 (5×10^4 cells/well/50 μl) were added and the culture was continued overnight. Activation (or proliferation) of the T cells was assessed by measuring production of IL-2 in the culture supernatant. This was done by ^3H-thymidine incorporation using the IL-2 dependent HT-2 cells. That is, when IL-2 is present (i.e. secreted by activated T cells) the HT-2 cells proliferate, incorporating labeled thymidine from the surrounding media.
(§3) The culture media used to carry out these assays was DMEM supplemented with 10% FBS, 0.05 mM 2-mercaptoethenol, 2 mM glutamine, 1 mM sodium puryvate and 50 μg/mL gentamycin sulfate. Briefly, culture supernatants (100 μl/well) were incubated with HT-2 cells (1×10^4 cells/well/100 μl) in 96-well flat bottom plates for 24 hours. Subsequently 1 μCi ^3H-thymidine was added per well and the culture was continued for an additional 12-14 hours. The cells were then harvested on glass fiber filters and the non incorporated ^3H-thymidine was washed away. Incorporated thymidine was then counted using the trace 96 program and an Inotech β counter. It will be appreciated that those wells containing higher levels of IL-2 (secreted by the activated T cell hybridoma lines) will induce higher levels of HT-2 cell proliferation and register increased levels of ^3H-thymidine incorporation.

[2] = tested on: PLP1-specific T cell hybridoma 4E3; assay: T cell hybridoma activation assay (IL-2 production), 4E3; format: cell-based, mouse; details: for IL-2 production by T cell hybridoma 4E3: SJL splenocyte APCs, 0.1 μM Ig chimeras, 1 μM peptides, 1.7 μM PLP, FIG. 3A; for EC50: 4E3 hybridoma, irradiated SJL/J splenocytes, IL-2 by HT-2 3H-thymidine incorporation, FIG. 4, read-out: stimulation to half the maximum level
Experimental: as §1, §2, §3
Specifically, different concentrations of the three antigens (i.e. agonists) were incubated with irradiated SJL/J splenocytes which were subsequently associated with 4E3 T cell hybridomas. IL-2 production was measured by ^3H-thymidine incorporation using the IL-2 dependent HT-2 cells as described in Example VI. Each point represents the mean of triplicates.

SJL mice = details: cited from earlier work

EC50 [2] [µM] | Molecule | T cell response to PLP-LR (PLP-LR specific T cells) | PLP1/PPD (%) (PLP1 specific T cells; co-administered sc with 50 μg Ig-PLP1 (150 μg Ig or 100 μg peptide), day 10, individual mice 1-4, PLP1 specific relative to PPD specific proliferation, listed as PLP-LR peptide) | reduction of immune response to PLP1 peptide (PLP1 specific T cells; co-administered with Ig-PLP1, lymph node and spleen cells, FIG. 8) | antagonism of Ig-PLP1 mediated T cell activation (IL-2 production) (4E3 T cell hybridomas) | IC50 (4E3 T cell hybridomas; agonist 1 μM PLP1 peptide, FIG. 5A, read-out: Inhibition of IL-2 production to half the maximum level (60% control thymidine incorporation)) [µM] | antagonism of native PLP mediated T cell activation (IL-2 production) (4E3 T cell hybridomas; agonist 7 μM PLP, FIG. 5C) | T cell antagonism, Stimulator (Agonist) Ig-PLP1 (4E3 T cell hybridomas; agonist Ig-PLP1, summary of FIG. 5) | T cell antagonism, Stimulator (Agonist) PLP1 (4E3 T cell hybridomas; agonist PLP1, summary of FIG. 5) | T cell antagonism, Stimulator (Agonist) PLP (4E3 T cell hybridomas; agonist PLP, summary of FIG. 5) | effect on IL-2 production of T cell hybridomas stimulated with PLP1 (T cell hybridomas) | binding to I-A^S class II molecules (I-A^S class II molecules) | IL-2 production by T cell hybridoma 5B6 [1] | IL-2 production by T cell hybridoma 4E3 [2] | encephalitogenic activity / EAE induction (SJL mice) | control thymidine incorporation (agonist, no antagonist) (4E3 T cell hybridomas) | antagonism of PLP1 peptide mediated T cell activation (IL-2 production) (4E3 T cell hybridomas; agonist 1 μM PLP1 peptide, FIG. 5A)
 | HSLGKLLGRPNKF [PLP-LR, analog of PLP1 in which Trp144 and His147 were replaced with Leu and Arg] | induction of PLP-LR-specific response | 93% and 100% and 81% and 91% | no indication that the PLP1 response was reduced; also recorded: no evident reduction in the proliferative response to PLP1 | did not show any significant antagonism; also recorded: failed to inhibit T cell activation | 9 | failed to inhibit T cell activation | − | + | − | inhibits IL-2 production | bind well | did not stimulate 5B6 and 4E3 to produce significant levels of IL-2 | did not stimulate 5B6 and 4E3 to produce significant levels of IL-2 |  |  | 
0.6 | HSLGKWLGHPNKF [PLP1, a peptide fragment of PLP comprising aa residues 139-151] |  |  |  |  |  |  |  |  |  |  | bind well | substantial levels of IL-2 | substantial levels of IL-2 | encephalitogenic | 31,089±3,860 cpm | 
 | NTWTTCQSIAFPSK [PLP2, a peptide fragment of PLP comprising aa residues 178-191] |  |  |  | did not show any significant antagonism |  |  |  |  |  |  | binds | did not induce the production of IL-2 | did not induce the production of IL-2 | induces EAE |  | antagonist effects were not observed
0.5 | proteolipid protein (protein, UniProt P60203 2-277, looked up, native proteolipid protein purified from rat brain) Myelin proteolipid protein: GLLECCARCLVGAPFASLVATGLCFFGVALFCGCGHEALTGTEKLIETYFSKNYQDYEYLINVIHAFQYVIYGTASFFFLYGALLLAEGFYTTGAVRQIFGDYKTTICGKGLSATVTGGQKGRGSRGQHQAHSLERVCHCLGKWLGHPDKFVGITYALTVVWLLVFACSAVPVYIYFNTWTTCQSIAFPSKTSASIGSLCADARMYGVLPWNAFPGKVCGSNLLSICKTAEFQMTFHLFIAAFVGAAATLVSLLTFMIAATYNFAVLKLMGRGTKF |  |  |  |  |  |  |  |  |  |  |  | substantial levels of IL-2 | substantial levels of IL-2 |  | 8,268±915 cpm | 

Source: patent publication US6737057B1, “Compounds, compositions and methods for the endocytic presentation of immunosuppressive factors” (The University of Tennessee Research Corporation, priority 1997, dated 2004)
